Holding throughout (assay): NCI-60 cell line screen, 48 h
The subject of assay [1] is OVCAR-8 ovarian.
For assay [2], the system named is LOX IMVI melanoma.
The subject of assay [3] is KM12 colon.
Assay [4] has as its system SK-MEL-5 melanoma.
For assay [5], the system named is HS 578T breast.
Assay [6] has as its system UO-31 renal.
In assay [7] the test system is ACHN renal.
Assay [8] relates to SK-MEL-2 melanoma.
Assay [9] deals with OVCAR-3 ovarian.
Assay [10] deals with NCI-H522 lung.
The test system of assay [11] is UACC-257 melanoma.
Assay [12] concerns SW-620 colon.
The subject of assay [13] is CCRF-CEM leukemia.
In assay [14] the test system is SK-OV-3 ovarian.
Assay [15] concerns HCT-15 colon.
The subject of assay [16] is IGROV1 ovarian.
For assay [17], the system named is MALME-3M melanoma.
Assay [18] concerns TK-10 renal.
For assay [19], the system named is SK-MEL-28 melanoma.
Assay [20] relates to HOP-92 NSCLC.

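All cell lines were grown in 96-well plates and treated with compound for 48 hours. TGI denotes the concentration required for complete inhibition of growth.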

On to `C=C1CC[C@@H]2[C@](C)(COC(=O)CCC(=O)OC)CCC[C@@]2(C)[C@@H]1CCC1=CC(=O)OC1`, for which the TGI in [1], in assay [2], in [3], in [4], in assay [5] and in [6] was more than 100 µM throughout. Besides, the TGI in assay [7], in assay [8], in assay [9], in [10], in assay [11] and in assay [12] was more than 100 µM each time. Further, the TGI in [13] is 58.8 µM; in [14], more than 100 µM; in [15] it was more than 100 µM; in assay [16], more than 100 µM; in [17] it was more than 100 µM; in assay [18], more than 100 µM. The TGI in assay [19] is more than 100 µM.
As for `CS(=O)(=O)CCC1CCC(=O)O1` (stereo unspecified), the TGI in assay [1], in [2], in assay [3], in assay [4], in assay [5] and in assay [6] was more than 100 µM in each case. Moreover, the TGI in assay [7] is 90.4 µM; in [9], more than 100 µM; in [10] it was more than 100 µM; in [11], more than 100 µM; in [20], more than 100 µM; in [12], more than 100 µM. Further, the TGI in assay [15], in assay [16], in assay [17], in [18] and in [19] was more than 100 µM in each case.
`Clc1ccc(C(OCn2ccnc2)c2nc3ccccc3[nH]2)c(Cl)c1` (stereo unspecified): the TGI is more than 100 µM in assay [1]; more than 100 µM in [2]; more than 100 µM in [3]; 35.2 µM in [4]; more than 100 µM in assay [5]; 92.1 µM in assay [6]. For the same compound, the TGI is more than 100 µM in [7]; more than 100 µM in [8]; more than 100 µM in assay [9]; more than 100 µM in assay [10]; more than 100 µM in assay [11]; 10.1 µM in [20]. In addition, the TGI in assay [12], in assay [13], in assay [15], in [16], in [17] and in assay [18] was more than 100 µM throughout. This compound returned a TGI in [19] of more than 100 µM.
Turning to `N#CC1=C(S)N(C2OC(CO)C(O)C(O)C2O)C(c2ccccc2)=CC1c1ccco1` (stereo unspecified), the TGI was more than 100 µM in assay [1]; 93 µM in [2]; more than 100 µM in assay [3]; more than 100 µM in assay [4]; more than 100 µM in assay [5]; more than 100 µM in [6]. Moreover, the TGI in [8], in assay [9], in [10], in assay [11], in [20] and in [13] was more than 100 µM in each case. The TGI in assay [15], in [16], in assay [17], in assay [18] and in [19] was more than 100 µM each time.
Turning to `C(=NC12CC3CC(CC(C3)C1)C2)C1CCCCC1`, the TGI in assay [1], in assay [3], in assay [4], in assay [5], in assay [6] and in assay [7] was more than 100 µM in each case. Also, the TGI in [8], in assay [9], in [10], in assay [11], in assay [20] and in assay [12] was more than 100 µM each time. Further, the TGI in assay [13], in assay [15], in [16], in assay [17] and in assay [18] was more than 100 µM in each case.
Regarding `CN(CC(=O)Nc1ccccc1C(=O)O)c1ccccc1`, the TGI in [1], in assay [2], in assay [3], in assay [4], in assay [5] and in [6] was more than 100 µM throughout. Also, the TGI in assay [7], in assay [9], in assay [10], in assay [11], in [20] and in assay [12] was more than 100 µM throughout. Moreover, the TGI in assay [13], in assay [15], in assay [16], in assay [17], in assay [18] and in assay [19] was more than 100 µM each time.
As for `COC(=O)c1ccc(CCC2=CC(=O)C=CC2=O)cc1`, the TGI came out at 50.7 µM in [1]; 24.2 µM in assay [2]; 27 µM in assay [3]; 30.2 µM in assay [4]; 75.2 µM in assay [5]; 19.9 µM in assay [6]. In addition, the TGI in [7] worked out at 20.4 µM; in assay [8], 30.4 µM; in assay [9], 23.2 µM; in assay [10], 3.14 µM; in assay [11], 22.5 µM; in assay [20], 25.1 µM. Also, the TGI in assay [12] worked out at 26.2 µM; in assay [13], 2 µM; in [15], 23 µM; in assay [16] it was 30.2 µM; in [18] it was 33 µM; in assay [19], 26 µM.
For the compound `C#CCN(C(=O)C(F)(F)F)C(/C=C\C(=O)OC)(C(=O)OCC)C(=O)OCC`, the TGI in assay [1], in assay [2], in [3], in assay [4], in assay [5] and in [6] was more than 100 µM each time. For the same compound, the TGI in [7], in assay [8], in [9], in assay [10], in assay [12] and in [13] was more than 100 µM in each case. The TGI in assay [14], in assay [15], in assay [16], in assay [17], in assay [18] and in assay [19] was more than 100 µM throughout.
`COC(=O)[C@@H]1Cc2ccc(OC)c(c2)OCCC(=O)N1`: the TGI in assay [1], in assay [3], in [4], in assay [5], in assay [6] and in assay [7] was more than 100 µM throughout. Besides, the TGI in assay [8], in assay [9], in [10], in assay [11], in assay [12] and in assay [13] was more than 100 µM in each case. Further, the TGI in assay [14], in assay [15], in assay [16], in assay [17], in assay [18] and in assay [19] was more than 100 µM throughout.
For `CC[C@@H]1CC[C@@H]2[C@H](CC[C@]3(C)[C@@H](O[N+](=O)[O-])CC[C@@H]23)[C@H]1C(C)=O`, the TGI in assay [1] is more than 100 µM; in [2] it was 39.5 µM; in [3], 80.7 µM; in [4], 40.4 µM; in assay [5], more than 100 µM; in assay [6], more than 100 µM. Also, the TGI in assay [7] is more than 100 µM; in [9], more than 100 µM; in assay [10], 80.9 µM; in assay [11], 55 µM; in assay [20], 70.2 µM; in [12] it was more than 100 µM. In addition, the TGI in assay [13] was more than 100 µM; in [15] it was more than 100 µM; in assay [16] it was more than 100 µM; in assay [17], 65.3 µM; in [18], more than 100 µM; in assay [19] it was more than 100 µM.
Regarding `COC(=O)C1=C(OC)C(=P2(c3ccccc3)CC(c3ccccc3)=C2c2ccccc2)C(C(=O)OC)=C1C(=O)OC` (stereo unspecified), the TGI in assay [1] is more than 100 µM; in assay [2], more than 100 µM; in assay [3], more than 100 µM; in assay [4], more than 81.9 µM; in [5], more than 100 µM; in assay [6] it was more than 100 µM. Besides, the TGI was more than 100 µM in [7]; more than 100 µM in [8]; more than 100 µM in assay [9]; 13.6 µM in assay [10]; more than 100 µM in assay [11]; more than 100 µM in assay [12]. The TGI was 4.74 µM in assay [13]; more than 100 µM in assay [14]; more than 62.7 µM in assay [15]; more than 100 µM in [16]; more than 78.2 µM in assay [17]; more than 76 µM in assay [18]. In assay [19], this compound registered a TGI of more than 100 µM.
Take `Cc1nn(C(=O)Cc2ccccc2)c2c1C(c1ccc(/C=C/c3ccccc3)cc1)SC(N)=N2` (stereo unspecified): the TGI in assay [1], in assay [2], in assay [3], in [4], in assay [5] and in assay [6] was more than 100 µM each time. Further, the TGI in [7], in assay [10], in assay [11], in assay [12], in assay [13] and in assay [14] was more than 100 µM in each case. The TGI in assay [15], in assay [16], in [17], in assay [18] and in assay [19] was more than 100 µM in each case.
Regarding `O[C@@H]1[C@H](OC2c3ccccc3-c3ccccc32)[C@H](OCc2ccccc2)[C@@H]2OC[C@H]1O2`, the TGI in assay [1], in assay [2], in [3], in assay [4], in assay [5] and in [6] was more than 100 µM in each case. The TGI in [7], in assay [8], in [9], in [10], in assay [11] and in assay [20] was more than 100 µM throughout. The TGI in [12], in assay [13], in [15], in [16], in assay [17] and in [18] was more than 100 µM throughout. The compound also registered a TGI in assay [19] of more than 100 µM.
`O=c1c2sc3ccccc3sc=2c(=O)c2c(Cl)c(Cl)c(Cl)c(Cl)c12`: the TGI in [1], in [3], in [4], in [5], in assay [6] and in assay [7] was more than 100 µM each time. For the same compound, the TGI in assay [8], in assay [9], in assay [10], in assay [11], in assay [12] and in assay [13] was more than 100 µM in each case. For the same compound, the TGI in [14], in assay [15], in assay [16], in assay [17], in [18] and in assay [19] was more than 100 µM throughout.
Turning to `N#CCC(=O)N/N=C\C(O)C(O)C(O)C(O)CO` (stereo unspecified), the TGI in assay [1], in assay [2], in assay [3], in assay [4], in [5] and in assay [6] was more than 100 µM throughout. In addition, the TGI in [7], in assay [8], in assay [9], in assay [10], in assay [11] and in [12] was more than 100 µM each time. Moreover, the TGI in assay [13], in assay [14], in assay [15], in [16], in [17] and in assay [18] was more than 100 µM each time. The compound also returned a TGI in assay [19] of more than 100 µM.

The values are drawn from PubChem BioAssay (NCI).
